The text below walks through data of US7528138B2, “Pyrazolo[1,5-a]pyrimidines useful as inhibitors of protein kinases” (Vertex Pharmaceuticals Incorporated, priority 2004, dated 2009).

Usually Ki stands for the equilibrium dissociation constant of an inhibitor or competing ligand from its target.

Type in all cases: biochemical
One test addresses c-Met (Homo sapiens, UniProt P08581). Kind of test: c-Met Inhibition Assay, coupled enzyme system. The settings on record: enzyme inhibition data (Ki), Table 11. In short, it runs like this:
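Pyruvate kinase/lactate dehydrogenase-coupled NADH assay in HEPES pH 7.5 with 80 nM c-Met, 200 μM ATP and 10 μM polyGluTyr at 30° C. Compound (0.006–12.5 μM final, 12-point) preincubated 10 min before ATP start; rates over 10 min gave Ki.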

The target of another test is T1, JAK3 (Homo sapiens, UniProt P52333).
T1 sequence (P52333 1-1124): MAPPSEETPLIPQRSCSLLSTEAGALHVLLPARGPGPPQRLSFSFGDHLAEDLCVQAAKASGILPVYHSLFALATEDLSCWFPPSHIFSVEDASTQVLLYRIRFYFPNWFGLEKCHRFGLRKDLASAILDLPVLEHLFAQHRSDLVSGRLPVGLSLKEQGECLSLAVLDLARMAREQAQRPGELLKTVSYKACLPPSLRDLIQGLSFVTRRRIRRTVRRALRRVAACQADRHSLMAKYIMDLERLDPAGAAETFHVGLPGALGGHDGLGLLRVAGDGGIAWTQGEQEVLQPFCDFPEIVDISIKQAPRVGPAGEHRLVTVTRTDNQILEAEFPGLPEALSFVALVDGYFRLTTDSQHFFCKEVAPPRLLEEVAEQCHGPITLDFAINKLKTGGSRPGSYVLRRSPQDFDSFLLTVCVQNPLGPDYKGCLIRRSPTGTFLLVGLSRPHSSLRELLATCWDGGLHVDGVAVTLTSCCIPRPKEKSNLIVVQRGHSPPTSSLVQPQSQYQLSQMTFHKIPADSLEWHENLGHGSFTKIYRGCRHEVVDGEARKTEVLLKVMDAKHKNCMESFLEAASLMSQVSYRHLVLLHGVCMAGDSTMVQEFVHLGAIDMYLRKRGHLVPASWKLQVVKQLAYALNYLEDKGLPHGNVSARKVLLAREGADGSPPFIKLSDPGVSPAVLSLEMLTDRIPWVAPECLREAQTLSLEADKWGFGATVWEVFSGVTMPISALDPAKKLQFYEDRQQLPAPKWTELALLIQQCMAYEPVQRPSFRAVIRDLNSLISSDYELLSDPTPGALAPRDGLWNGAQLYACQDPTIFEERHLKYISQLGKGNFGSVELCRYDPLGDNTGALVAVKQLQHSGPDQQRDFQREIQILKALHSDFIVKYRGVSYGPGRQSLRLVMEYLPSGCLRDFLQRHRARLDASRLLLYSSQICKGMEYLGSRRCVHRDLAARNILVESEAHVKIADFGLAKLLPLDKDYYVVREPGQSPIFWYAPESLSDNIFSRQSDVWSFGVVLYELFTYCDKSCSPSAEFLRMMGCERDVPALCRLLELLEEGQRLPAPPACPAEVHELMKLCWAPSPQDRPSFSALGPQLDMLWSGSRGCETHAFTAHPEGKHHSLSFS
Put plainly: JAK3 Inhibition Assay, 33P incorporation. Particulars: enzyme inhibition data (Ki), Table 11. A digest of the protocol:
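33P incorporation into 1 μM poly(Glu)4Tyr was counted after TCA stop and glass fiber filtration. The 20 min reaction ran at 25 °C with 1 nM JAK3 and 5 μM ATP (200 uCi/μmole). Buffer was 100 mM HEPES pH 7.4, 10 mM MgCl2, 25 mM NaCl, 1 mM DTT, 0.01% BSA.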

A further test deals with T2, Itk (Homo sapiens, UniProt Q08881).
T2 sequence (Q08881 1-620): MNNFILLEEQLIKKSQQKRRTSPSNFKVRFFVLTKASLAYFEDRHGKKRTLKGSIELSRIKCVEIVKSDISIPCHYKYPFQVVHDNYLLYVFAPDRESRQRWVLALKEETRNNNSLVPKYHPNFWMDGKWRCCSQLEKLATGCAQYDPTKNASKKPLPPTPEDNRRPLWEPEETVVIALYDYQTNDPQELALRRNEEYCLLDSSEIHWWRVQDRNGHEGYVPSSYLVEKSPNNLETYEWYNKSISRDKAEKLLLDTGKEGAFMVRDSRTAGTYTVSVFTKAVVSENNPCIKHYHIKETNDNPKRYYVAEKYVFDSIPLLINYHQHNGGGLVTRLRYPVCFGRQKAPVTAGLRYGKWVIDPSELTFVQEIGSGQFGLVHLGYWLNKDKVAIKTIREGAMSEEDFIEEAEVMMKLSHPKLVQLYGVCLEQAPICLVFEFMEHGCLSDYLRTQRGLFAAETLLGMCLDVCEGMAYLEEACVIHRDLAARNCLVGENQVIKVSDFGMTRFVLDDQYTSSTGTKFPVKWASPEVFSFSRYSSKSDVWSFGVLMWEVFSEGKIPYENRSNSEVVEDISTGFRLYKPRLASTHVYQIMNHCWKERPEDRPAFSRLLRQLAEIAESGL
Kind of test: ITK Inhibition Assay (Radiometric), radioactive-phosphate incorporation. Particulars: enzyme inhibition data (Ki), Table 11; radiometric or UV assay not stated. A digest of the protocol: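 Radiometric 33P incorporation into SAM68 peptide (D332-443) with filter capture and scintillation counting; 10 min pre-incubation then 10 min reaction at 25° C. IC50 format: 30 nM Itk, 15 μM ATP, 2 μM peptide, HEPES pH 7.5. Ki(app) format: 50 nM Itk, 7.5 μM ATP, 3 μM peptide, MOPS pH 7.0.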

Sequence of c-Met (P08581 25-1390): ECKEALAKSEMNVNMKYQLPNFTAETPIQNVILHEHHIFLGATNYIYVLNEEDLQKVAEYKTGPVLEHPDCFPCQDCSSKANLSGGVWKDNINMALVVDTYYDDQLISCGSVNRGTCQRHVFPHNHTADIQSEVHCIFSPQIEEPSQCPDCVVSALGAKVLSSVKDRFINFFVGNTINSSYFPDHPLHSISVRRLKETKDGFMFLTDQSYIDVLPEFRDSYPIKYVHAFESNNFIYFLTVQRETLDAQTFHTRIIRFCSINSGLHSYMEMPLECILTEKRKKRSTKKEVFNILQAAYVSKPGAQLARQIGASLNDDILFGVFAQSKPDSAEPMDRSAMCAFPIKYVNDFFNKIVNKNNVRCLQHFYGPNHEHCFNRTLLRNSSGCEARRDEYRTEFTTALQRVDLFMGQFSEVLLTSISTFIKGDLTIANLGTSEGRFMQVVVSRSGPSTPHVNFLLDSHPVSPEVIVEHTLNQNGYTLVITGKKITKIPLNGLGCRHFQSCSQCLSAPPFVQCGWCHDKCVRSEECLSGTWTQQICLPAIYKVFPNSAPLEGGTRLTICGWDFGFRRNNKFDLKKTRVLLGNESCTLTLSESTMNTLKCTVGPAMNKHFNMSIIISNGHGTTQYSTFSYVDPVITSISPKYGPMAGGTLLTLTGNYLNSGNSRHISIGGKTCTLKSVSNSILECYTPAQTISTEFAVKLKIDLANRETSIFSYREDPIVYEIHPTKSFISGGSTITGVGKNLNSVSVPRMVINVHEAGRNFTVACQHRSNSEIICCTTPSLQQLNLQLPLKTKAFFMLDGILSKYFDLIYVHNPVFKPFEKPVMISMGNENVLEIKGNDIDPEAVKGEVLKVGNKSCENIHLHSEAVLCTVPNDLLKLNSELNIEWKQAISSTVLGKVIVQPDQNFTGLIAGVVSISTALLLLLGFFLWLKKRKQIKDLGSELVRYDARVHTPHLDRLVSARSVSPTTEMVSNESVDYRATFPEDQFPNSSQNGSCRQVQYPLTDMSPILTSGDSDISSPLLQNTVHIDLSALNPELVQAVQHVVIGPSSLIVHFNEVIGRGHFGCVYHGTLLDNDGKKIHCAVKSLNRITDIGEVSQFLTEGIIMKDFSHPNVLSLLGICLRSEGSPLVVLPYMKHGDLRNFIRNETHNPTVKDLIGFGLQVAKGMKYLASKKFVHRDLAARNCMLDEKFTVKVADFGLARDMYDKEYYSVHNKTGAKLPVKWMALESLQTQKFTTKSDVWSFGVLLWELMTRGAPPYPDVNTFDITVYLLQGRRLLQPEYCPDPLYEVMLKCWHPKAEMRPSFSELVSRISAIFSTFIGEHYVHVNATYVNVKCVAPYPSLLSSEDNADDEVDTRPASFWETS

On to `Nc1nn2cc(-c3cccnc3N3CCC(N4CCCC4)CC3)cnc2c1-c1ccccn1` [Compound V-265], for which the Ki on c-Met was 0.5 to 5 µM; on JAK3 it was above 5 µM; on Itk, 0.5 to 5 µM.

Turning to `CC(C)(C)OCc1ccccc1-c1cnc2c(-c3ccccn3)c(N)nn2c1` [Compound V-49], the Ki was 0.5 to 5 µM on c-Met, above 5 µM at JAK3 and 0.5 to 5 µM on Itk.

Consider `CN(C)Cc1ccccc1-c1cnc2c(-c3ccccn3)c(N)nn2c1` [Compound V-23], for which the Ki at c-Met was 0.5 to 5 µM; on JAK3, above 5 µM; on Itk, 0.5 to 5 µM.

On to `Nc1nn2cc(CCCO)cnc2c1-c1ccccn1` [Compound V-310], for which the Ki at c-Met was 0.5 to 5 µM; on JAK3, above 5 µM; at Itk it was 0.5 to 5 µM.

As to `Cc1cnc2c(-c3cc(NC4CCNC4)ncn3)c(N)nn2c1` (stereo not drawn) [Compound V-337], the Ki on c-Met, on JAK3 and on Itk was below 0.5 µM each time.

For `CNC(=O)c1cccc(-c2cnc3c(-c4ccccn4)c(N)nn3c2)n1` [Compound V-118], the inhibitory constant (Ki) on c-Met is below 0.5 µM; on JAK3, above 5 µM; on Itk it was 0.5 to 5 µM.

On to `Nc1nn2cc(CCCN3CCSCC3)cnc2c1-c1ccccn1` [Compound V-328], for which the Ki at c-Met was 0.5 to 5 µM; on JAK3, above 5 µM; on Itk, 0.5 to 5 µM.

`Nc1nn2cc(-c3ccncn3)cnc2c1C(=O)N1CCCC1` [Compound V-45]: the figures for the Ki at c-Met, on JAK3 and on Itk were 0.5 to 5 µM, above 5 µM and 0.5 to 5 µM, respectively.

Regarding `CCCCN(CCN)C(=O)c1ccc(-c2cnc3c(-c4ccccn4)c(N)nn3c2)nc1` [Compound V-80], the Ki on c-Met is below 0.5 µM; at JAK3, above 5 µM; on Itk it was below 0.5 µM.

For the compound `CN(CCc1ccccn1)c1ccc(-c2cnc3c(-c4ccccn4)c(N)nn3c2)cn1` [Compound V-168], the Ki is 0.5 to 5 µM on c-Met, above 5 µM on JAK3 and 0.5 to 5 µM at Itk.

Consider `Cc1cnc2c(-c3cc(N[C@H]4CCC[C@@H]4OCc4ccccc4)ncn3)c(N)nn2c1` [Compound V-334], for which the inhibitory constant (Ki) on c-Met was below 0.5 µM; at JAK3, 0.5 to 5 µM; at Itk, 0.5 to 5 µM.

`CCN(CCO)C(=O)c1cccc(-c2cnc3c(-c4ccccn4)c(N)nn3c2)n1` [Compound V-128]: the inhibition constant Ki on c-Met is below 0.5 µM; on JAK3, above 5 µM; at Itk, 0.5 to 5 µM.

Regarding `CCC(CO)Nc1cc(-c2c(N)nn3cc(C)cnc23)ncn1` (stereo not drawn) [Compound V-288], the Ki is below 0.5 µM on c-Met, 0.5 to 5 µM at JAK3 and below 0.5 µM on Itk.

Take `COc1ccc(-c2cnc3c([N+](=O)[O-])c(N)nn3c2)cc1` [Compound V-239]: the Ki on c-Met is 0.5 to 5 µM; on JAK3 it was above 5 µM; on Itk, 0.5 to 5 µM.

In the case of `Nc1nn2cc(N3CCC[C@@H]3CN3CCCC3)cnc2c1-c1ccccn1` [Compound V-272], the Ki at c-Met is 0.5 to 5 µM; on JAK3 it was above 5 µM; at Itk, 0.5 to 5 µM.

On to `Nc1nn2cc(-c3cncnc3)cnc2c1-c1ccccn1` [Compound V-52], for which the results for the Ki at c-Met, on JAK3 and at Itk were 0.5 to 5 µM, above 5 µM and 0.5 to 5 µM, respectively.

`Nc1nn2cc(CCc3ccccc3)cnc2c1-c1ccccn1` [Compound V-213]: the Ki at c-Met is 0.5 to 5 µM; at JAK3, above 5 µM; on Itk, 0.5 to 5 µM.

On to `Nc1nn2cc(CCCN3CCOCC3)cnc2c1-c1ccccn1` [Compound V-313], for which the results for the Ki on c-Met, at JAK3 and on Itk were 0.5 to 5 µM, above 5 µM and 0.5 to 5 µM, respectively.

As for `Nc1nn2cc(-c3cccnc3N3CCCC3)cnc2c1-c1ccccn1` [Compound V-258], the Ki is 0.5 to 5 µM at c-Met, above 5 µM at JAK3 and 0.5 to 5 µM on Itk.

For `CCN(CCCCN)C(=O)c1cccc(-c2cnc3c(-c4ccccn4)c(N)nn3c2)n1` [Compound V-110], the Ki on c-Met is below 0.5 µM; at JAK3, 0.5 to 5 µM; at Itk it was below 0.5 µM.

For `CCc1ccccc1-c1cnc2c(-c3ccccn3)c(N)nn2c1` [Compound V-9], the Ki at c-Met was 0.5 to 5 µM; at JAK3, above 5 µM; at Itk it was 0.5 to 5 µM.

As to `Cc1cnc2c(-c3cc(N4CCCC(O)C4)ncn3)c(N)nn2c1` (stereo not drawn) [Compound V-342], the values for the Ki on c-Met, on JAK3 and on Itk were below 0.5 µM, 0.5 to 5 µM and 0.5 to 5 µM, respectively.

For `COC[C@H](C)Nc1cc(-c2c(N)nn3cc(C)cnc23)ncn1` [Compound V-292], the values for the inhibition constant Ki on c-Met, on JAK3 and at Itk were below 0.5 µM, 0.5 to 5 µM and 0.5 to 5 µM, respectively.

With `Cc1cnc2c(-c3cc(N[C@H](C)C4CCCCC4)ncn3)c(N)nn2c1` [Compound V-297], the figures for the Ki on c-Met, at JAK3 and on Itk were below 0.5 µM, 0.5 to 5 µM and 0.5 to 5 µM, respectively.

Take `CCN(C)c1ccc(-c2cnc3c(-c4ccccn4)c(N)nn3c2)cn1` [Compound V-171]: the Ki is below 0.5 µM at c-Met, above 5 µM at JAK3 and 0.5 to 5 µM at Itk.

Regarding `COC(=O)/C=C/c1ccccc1-c1cnc2c(-c3ccccn3)c(N)nn2c1` [Compound V-17], the Ki was 0.5 to 5 µM on c-Met, above 5 µM on JAK3 and 0.5 to 5 µM on Itk.

For the compound `Nc1nn2cc(-c3ccccc3OCc3ccccc3)cnc2c1-c1ccccn1` [Compound V-56], the Ki at c-Met was 0.5 to 5 µM; at JAK3, above 5 µM; at Itk, 0.5 to 5 µM.

For the compound `Nc1nn2cc(-c3ccnc(N4CCC[C@@H]4CO)c3)cnc2c1-c1ccccn1` [Compound V-251], the inhibition constant (Ki) at c-Met was below 0.5 µM; at JAK3, above 5 µM; at Itk, 0.5 to 5 µM.

As for `CC(C)CNC(=O)c1cnc2c(-c3ccccn3)c(N)nn2c1` [Compound V-205], the results for the inhibition constant Ki on c-Met, on JAK3 and at Itk were 0.5 to 5 µM, above 5 µM and 0.5 to 5 µM, respectively.

With `Nc1nn2cc(-c3cccnc3N3CCCC(CO)C3)cnc2c1-c1ccccn1` (stereo not drawn) [Compound V-270], the values for the inhibitory constant (Ki) at c-Met, on JAK3 and at Itk were 0.5 to 5 µM, above 5 µM and 0.5 to 5 µM, respectively.

On to `CCN(C)CCCc1cnc2c(-c3ccccn3)c(N)nn2c1` [Compound V-318], for which the Ki on c-Met is 0.5 to 5 µM; on JAK3, above 5 µM; on Itk, 0.5 to 5 µM.

Regarding `CN(CC1OCCO1)C(=O)c1ccc(-c2cnc3c(-c4ccccn4)c(N)nn3c2)nc1` [Compound V-95], the Ki at c-Met is below 0.5 µM; on JAK3 it was 0.5 to 5 µM; at Itk, below 0.5 µM.

`Nc1nn2cc(-c3cccc(C(=O)NCCF)n3)cnc2c1-c1ccccn1` [Compound V-107]: the Ki at c-Met was below 0.5 µM; at JAK3, 0.5 to 5 µM; at Itk, 0.5 to 5 µM.
